Source: PMC5179006, “Procarcinogens – Determination and Evaluation by Yeast-Based Biosensor Transformed with Plasmids Incorporating RAD54 Reporter Construct and Cytochrome P450 Genes” (PLoS ONE, 2016)
Where two headings read alike, the source gives them in different places.

How the values were obtained:
recombinant human CYP3A4 = conditions: 3A4+ clone microsomes; nonlinear regression
CYP2B6 [1] = molecular target: T1, CYP2B6 (Homo sapiens, UniProt P20813); conditions: 2B6+ clone microsomes; nonlinear regression
CYP3A4 = assay: in vitro; conditions: human, pH 7.4, Km, 3A4+ clone microsomes; nonlinear regression; substrate 1–100 μM, 37°C
CYP2B6 [2] = molecular target: T1, CYP2B6; assay: in vitro; conditions: pH 7.4, Km, 2B6+ clone microsomes, nonlinear regression, substrate 1–100 μM, 37°C
recombinant human CYP2D6 = recombinant human CYP2D6 (Homo sapiens, UniProt P10635); assay: CYP activity assay, deethylation of fluorogenic substrate by microsomes of 2D6+ clone; conditions: 2D6+ clone microsomes, nonlinear regression
[3] = test system: CYP3A4 + RAD54 system (CPR-CYP3A4 and RAD54-GFP constructs)
[4] = test system: CYP2B6 + RAD54 system (CPR-CYP2B6 and RAD54-GFP constructs)
[5] = test system: CYP2D6 + RAD54 system (CPR-CYP2D6 and RAD54-GFP constructs)
[6] = test system: RAD54 system (only the RAD54-GFP construct)
[7] = test system: NCs system (control pESC-URA and pUMGP5 plasmids)
[8] = test system: RAD54-GFP integrant + CYP3A4; conditions: cited from earlier work
RAD54-GFP integrant = conditions: concentration 1.02–33 μg/mL; ref Walsh et al. 2005 [30]; cited from earlier work
[9] = test system: RAD54-GFP integrant + CYP1A2; conditions: cited from earlier work
in vitro = conditions: Saccharomyces cerevisiae
[10] = substrate: CCOc1ccc2cc(C#N)c(=O)oc2c1; assay: cells, lysate or membranes named; conditions: other: 2D6+ clone microsomes, nonlinear regression, substrate 1–100 μM, 37°C
[11] = concentration 1.02–33 μg/mL, ref Walsh et al. 2005 [30]

T1 sequence (P20813 whole entry): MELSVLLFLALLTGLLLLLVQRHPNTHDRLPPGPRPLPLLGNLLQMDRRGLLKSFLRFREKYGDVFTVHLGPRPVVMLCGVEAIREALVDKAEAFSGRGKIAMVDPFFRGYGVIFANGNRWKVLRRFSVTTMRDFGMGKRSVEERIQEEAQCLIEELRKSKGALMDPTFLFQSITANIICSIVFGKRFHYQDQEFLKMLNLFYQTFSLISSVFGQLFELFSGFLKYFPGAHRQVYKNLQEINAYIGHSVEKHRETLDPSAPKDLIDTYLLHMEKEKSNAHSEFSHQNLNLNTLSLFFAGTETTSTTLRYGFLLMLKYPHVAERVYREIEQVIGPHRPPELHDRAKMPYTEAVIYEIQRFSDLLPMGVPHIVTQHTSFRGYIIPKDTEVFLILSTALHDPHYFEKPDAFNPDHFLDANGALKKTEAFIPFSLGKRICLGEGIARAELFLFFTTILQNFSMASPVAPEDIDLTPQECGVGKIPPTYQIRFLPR

## CCOc1ccc2cc(C#N)c(=O)oc2c1 [7-ethoxycoumarin-3-carbonitrile]
Recombinant human CYP3A4
  Vmax: 3.2 pmol/pmol CYP/min
CYP2B6 [1]
  Vmax: 2.7 pmol/pmol CYP/min
CYP3A4
  Km: 3.5 µM
CYP2B6 [2]
  Km: 3.7 µM
Recombinant human CYP2D6
  Vmax: ~ 4.7 pmol/pmol CYP/min
Recombinant human CYP2D6; substrate 1–100 μM, 37°C
  Km: ~2.1 µM

## N-nitrosodimethylamine
[3]
  GFP fold induction signal, CYP3A4 + RAD54: – (key: Negative (≤1.3 GFP fold induction),–; positive (>1.3 GFP fold induction), + (1.3, 2]; ++ (2, 3]; +++ (3, 4]; ++++ (4, ∞])
[4]
  Genotoxicity result, present study, CYP2B6 + RAD54: +
[5]
  GFP fold induction signal, CYP2D6 + RAD54: – (key: Negative (≤1.3 GFP fold induction),–; positive (>1.3 GFP fold induction), + (1.3, 2]; ++ (2, 3]; +++ (3, 4]; ++++ (4, ∞])
[6]
  GFP fold induction: ≤ 1.3
  GFP fold induction signal, RAD54: – (key: Negative (≤1.3 GFP fold induction),–; positive (>1.3 GFP fold induction), + (1.3, 2]; ++ (2, 3]; +++ (3, 4]; ++++ (4, ∞])
[7]
  GFP fold induction signal, NCs: – (key: Negative (≤1.3 GFP fold induction),–; positive (>1.3 GFP fold induction), + (1.3, 2]; ++ (2, 3]; +++ (3, 4]; ++++ (4, ∞])
[8]
  Genotoxicity result, published report, RAD54-GFP integrant + CYP3A4: +

## COS(C)(=O)=O [Methyl methanesulfonate, methyl methanesulfonate]
[3]; 25 μM, 16 h at 30°C
  GFP fold induction signal, CYP3A4 + RAD54: + (positive (>1.3 GFP fold induction), + (1.3, 2])
[3]; 50 μM, 16 h at 30°C
  GFP fold induction signal, CYP3A4 + RAD54: +++ (+++ (3, 4])
[3]; 100 μM, 16 h at 30°C
  GFP fold induction signal, CYP3A4 + RAD54: ++++ (++++ (4, ∞])
[3]; concentration 2.75–11.01 μg/mL
  Genotoxicity result, present study, CYP3A4 + RAD54: +
[4]; 25 μM, 16 h at 30°C
  GFP fold induction signal, CYP2B6 + RAD54: + (positive (>1.3 GFP fold induction), + (1.3, 2])
[4]; 50 μM, 16 h at 30°C
  GFP fold induction signal, CYP2B6 + RAD54: +++ (+++ (3, 4])
[4]; 100 μM, 16 h at 30°C
  GFP fold induction signal, CYP2B6 + RAD54: ++++ (++++ (4, ∞])
[4]; concentration 2.75–11.01 μg/mL
  Genotoxicity result, present study, CYP2B6 + RAD54: +
[5]; 25 μM, 16 h at 30°C
  GFP fold induction signal, CYP2D6 + RAD54: + (positive (>1.3 GFP fold induction), + (1.3, 2])
[5]; 50 μM, 16 h at 30°C
  GFP fold induction signal, CYP2D6 + RAD54: +++ (+++ (3, 4])
[5]; 100 μM, 16 h at 30°C
  GFP fold induction signal, CYP2D6 + RAD54: ++++ (++++ (4, ∞])
[5]; concentration 2.75–11.01 μg/mL
  Genotoxicity result, present study, CYP2D6 + RAD54: +
[6]; 25 μM, 16 h at 30°C
  GFP fold induction signal, RAD54: + (positive (>1.3 GFP fold induction), + (1.3, 2])
[6]; 50 μM, 16 h at 30°C
  GFP fold induction signal, RAD54: +++ (+++ (3, 4])
[6]; 100 μM, 16 h at 30°C
  GFP fold induction signal, RAD54: ++++ (++++ (4, ∞])
[6]; concentration 2.75–11.01 μg/mL
  Genotoxicity result, present study, RAD54: +
[7]; 25 μM, 16 h at 30°C
  GFP fold induction signal, NCs: – (Negative (≤1.3 GFP fold induction),–)
[7]; 50 μM, 16 h at 30°C
  GFP fold induction signal, NCs: – (Negative (≤1.3 GFP fold induction),–)
[7]; 100 μM, 16 h at 30°C
  GFP fold induction signal, NCs: – (Negative (≤1.3 GFP fold induction),–)
RAD54-GFP integrant
  Genotoxicity result, published report, RAD54-GFP integrant: +
[8]; [11]
  Genotoxicity result, published report, RAD54-GFP integrant + CYP3A4: +
[9]; [11]
  Genotoxicity result, published report, RAD54-GFP integrant + CYP1A2: +

## c1ccc2c(c1)cc1ccc3cccc4ccc2c1c34 [Benzo(a)pyrene, benzo(a)pyrene]
[3]
  Genotoxicity result, present study, CYP3A4 + RAD54: +
[3]; 10 μM, 16 h at 30°C
  GFP fold induction signal, CYP3A4 + RAD54: + (positive (>1.3 GFP fold induction), + (1.3, 2])
[3]; 20 μM, 16 h at 30°C
  GFP fold induction signal, CYP3A4 + RAD54: + (positive (>1.3 GFP fold induction), + (1.3, 2])
[3]; 40 μM, 16 h at 30°C
  GFP fold induction signal, CYP3A4 + RAD54: ++ (++ (2, 3])
[4]; 10 μM, 16 h at 30°C
  GFP fold induction signal, CYP2B6 + RAD54: – (Negative (≤1.3 GFP fold induction),–)
[4]; 20 μM, 16 h at 30°C
  GFP fold induction signal, CYP2B6 + RAD54: – (Negative (≤1.3 GFP fold induction),–)
[4]; 40 μM, 16 h at 30°C
  GFP fold induction signal, CYP2B6 + RAD54: – (Negative (≤1.3 GFP fold induction),–)
[5]; 10 μM, 16 h at 30°C
  GFP fold induction signal, CYP2D6 + RAD54: – (Negative (≤1.3 GFP fold induction),–)
[5]; 20 μM, 16 h at 30°C
  GFP fold induction signal, CYP2D6 + RAD54: – (Negative (≤1.3 GFP fold induction),–)
[5]; 40 μM, 16 h at 30°C
  GFP fold induction signal, CYP2D6 + RAD54: – (Negative (≤1.3 GFP fold induction),–)
[6]; 10 μM, 16 h at 30°C
  GFP fold induction signal, RAD54: – (Negative (≤1.3 GFP fold induction),–)
[6]; 20 μM, 16 h at 30°C
  GFP fold induction signal, RAD54: – (Negative (≤1.3 GFP fold induction),–)
[6]; 40 μM, 16 h at 30°C
  GFP fold induction signal, RAD54: – (Negative (≤1.3 GFP fold induction),–)
[7]; 10 μM, 16 h at 30°C
  GFP fold induction signal, NCs: – (Negative (≤1.3 GFP fold induction),–)
[7]; 20 μM, 16 h at 30°C
  GFP fold induction signal, NCs: – (Negative (≤1.3 GFP fold induction),–)
[7]; 40 μM, 16 h at 30°C
  GFP fold induction signal, NCs: – (Negative (≤1.3 GFP fold induction),–)
In vitro
  fold induction: ≤ 1.3

## aflatoxin B1
[3]
  Genotoxicity result, present study, CYP3A4 + RAD54: +
[3]; 0.1 µM
  GFP fold induction signal, CYP3A4 + RAD54: + (key: Negative (≤1.3 GFP fold induction),–; positive (>1.3 GFP fold induction), + (1.3, 2]; ++ (2, 3]; +++ (3, 4]; ++++ (4, ∞])
[3]; 0.2 µM
  GFP fold induction signal, CYP3A4 + RAD54: ++ (key: Negative (≤1.3 GFP fold induction),–; positive (>1.3 GFP fold induction), + (1.3, 2]; ++ (2, 3]; +++ (3, 4]; ++++ (4, ∞])
[3]; 0.4 µM
  GFP fold induction signal, CYP3A4 + RAD54: ++ (key: Negative (≤1.3 GFP fold induction),–; positive (>1.3 GFP fold induction), + (1.3, 2]; ++ (2, 3]; +++ (3, 4]; ++++ (4, ∞])
[4]
  Genotoxicity result, present study, CYP2B6 + RAD54: +
[4]; 0.1 µM
  GFP fold induction signal, CYP2B6 + RAD54: – (key: Negative (≤1.3 GFP fold induction),–; positive (>1.3 GFP fold induction), + (1.3, 2]; ++ (2, 3]; +++ (3, 4]; ++++ (4, ∞])
[4]; 0.2 µM
  GFP fold induction signal, CYP2B6 + RAD54: – (key: Negative (≤1.3 GFP fold induction),–; positive (>1.3 GFP fold induction), + (1.3, 2]; ++ (2, 3]; +++ (3, 4]; ++++ (4, ∞])
[4]; 0.4 µM
  GFP fold induction signal, CYP2B6 + RAD54: + (key: Negative (≤1.3 GFP fold induction),–; positive (>1.3 GFP fold induction), + (1.3, 2]; ++ (2, 3]; +++ (3, 4]; ++++ (4, ∞])
[5]; 0.1 µM
  GFP fold induction signal, CYP2D6 + RAD54: – (key: Negative (≤1.3 GFP fold induction),–; positive (>1.3 GFP fold induction), + (1.3, 2]; ++ (2, 3]; +++ (3, 4]; ++++ (4, ∞])
[5]; 0.2 µM
  GFP fold induction signal, CYP2D6 + RAD54: – (key: Negative (≤1.3 GFP fold induction),–; positive (>1.3 GFP fold induction), + (1.3, 2]; ++ (2, 3]; +++ (3, 4]; ++++ (4, ∞])
[5]; 0.4 µM
  GFP fold induction signal, CYP2D6 + RAD54: – (key: Negative (≤1.3 GFP fold induction),–; positive (>1.3 GFP fold induction), + (1.3, 2]; ++ (2, 3]; +++ (3, 4]; ++++ (4, ∞])
[6]
  GFP fold induction: ≤ 1.3
[6]; 0.1 µM
  GFP fold induction signal, RAD54: – (key: Negative (≤1.3 GFP fold induction),–; positive (>1.3 GFP fold induction), + (1.3, 2]; ++ (2, 3]; +++ (3, 4]; ++++ (4, ∞])
[6]; 0.2 µM
  GFP fold induction signal, RAD54: – (key: Negative (≤1.3 GFP fold induction),–; positive (>1.3 GFP fold induction), + (1.3, 2]; ++ (2, 3]; +++ (3, 4]; ++++ (4, ∞])
[6]; 0.4 µM
  GFP fold induction signal, RAD54: – (key: Negative (≤1.3 GFP fold induction),–; positive (>1.3 GFP fold induction), + (1.3, 2]; ++ (2, 3]; +++ (3, 4]; ++++ (4, ∞])
[7]; 0.1 µM
  GFP fold induction signal, NCs: – (key: Negative (≤1.3 GFP fold induction),–; positive (>1.3 GFP fold induction), + (1.3, 2]; ++ (2, 3]; +++ (3, 4]; ++++ (4, ∞])
[7]; 0.2 µM
  GFP fold induction signal, NCs: – (key: Negative (≤1.3 GFP fold induction),–; positive (>1.3 GFP fold induction), + (1.3, 2]; ++ (2, 3]; +++ (3, 4]; ++++ (4, ∞])
[7]; 0.4 µM
  GFP fold induction signal, NCs: – (key: Negative (≤1.3 GFP fold induction),–; positive (>1.3 GFP fold induction), + (1.3, 2]; ++ (2, 3]; +++ (3, 4]; ++++ (4, ∞])
[9]
  Genotoxicity result, published report, RAD54-GFP integrant + CYP1A2: +

B1: recombinant human CYP2D6 (Homo sapiens) (protein)
chain: MGLEALVPLAVIVAIFLLLVDLMHRRQRWAARYPPGPLPLPGLGNLLHVDFQNTPYCFDQLRRRFGDVFSLQLAWTPVVVLNGLAAVREALVTHGEDTADRPPVPITQILGFGPRSQGVFLARYGPAWREQRRFSVSTLRNLGLGKKSLEQWVTEEAACLCAAFANHSGRPFRPNGLLDKAVSNVIASLTCGRRFEYDDPRFLRLLDLAQEGLKEESGFLREVLNAVPVLLHIPALAGKVLRFQKAFLTQLDELLTEHRMTWDPAQPPRDLTEAFLAEMEKAKGNPESSFNDENLRIVVADLFSAGMVTTSTTLAWGLLLMILHPDVQRRVQQEIDDVIGQVRRPEMGDQAHMPYTTAVIHEVQRFGDIVPLGVTHMTSRDIEVQGFRIPKGTTLITNLSSVLKDEAVWEKPFRFHPEHFLDAQGHFVKPEAFLPFSAGRRACLGEPLARMELFLFFTSLLQHFSFSVPTGQPRPSHHGVFAFLVSPSPYELCAVPR
[10]
  Km: 2.1 µM
  kcat: 4.7 pmol/pmol CYP/min
  kcat/Km: 2.2 μL/pmol CYP/min
